System: rats
Test: Open field test
Assay type: in vivo
Settings: for duration of rearing behaviour, main effect: 5-MeO-DMT p=0.0047, cocaine p=0.0380; for duration of time spent in the centre of the arena: any treatment group; for number of rearings, main effect: cocaine p=0.0202, 5-MeO-DMT p=0.0020; for duration of time spent in the centre of the field: any of treatments
Experimental: In this instance the animals were 9 weeks old at the initiation of drug exposures and we selected just the high (20 mg/kg) dose of 5-MeO-DMT from the molecular study. […] Due to the number of behavioral paradigms to be completed by each animal we divided the study into two cohorts staggered by two weeks with 8 animals coming from each cohort to make up the 16 animals for each treatment group. 23 hours after 5-MeO-DMT administration the animals were introduced to the open field arena where they were allowed to freely explore the area for 5 mins. Following the open field test (OFT) animals were returned to their home cage for 2 hours before beginning either the elevated plus maze (EPM) or pre-pulse inhibition (PPI) testing. 24 hours after completing the OFT animals were returned to the chamber for the first session in novel object (NO1) testing. The animals were returned to their home cage for 2 hours before beginning the EPM or PPI test. 24 hours after NO1 the animals returned to the open field chamber for the second session in novel object (N02) testing. After completing N02 animals were returned to their home cage for 2 hours before they underwent the forced swim test (FST) pre-test. 24 hours later the animals were returned to the FS cylinders for the FST. Upon completion of the FST all animals were euthanized. A timeline of this experimental cohort is described in FIG. 8A.
The experiment was conducted as described for cohort 1 for the first 13 days of injections. There are a number of notable differences in experimental procedures between the two cohorts of animals to be highlighted. […] Finally, the dose of 5-MeO-DMT was reduced to 10 mg/kg. The order and timing of all the behavioral paradigms were kept constant between the cohorts. A timeline of this experimental cohort is described in FIG. 8B. Additionally, 5-MeO-DMT administrations were staggered so animals could be observed for the duration of acute drug effects and to ensure recovery prior to the next animal being injected. The typical symptoms of psychedelic drug administration outlined above were reproduced in all animals administered 5-MeO-DMT.
The open field environment provides a fast and relatively easy test that determines a variety of behavioral information ranging from general ambulatory ability to data regarding the emotionality of the subject animal. The technique enables investigation of different pharmacological compounds for anxiolytic or anxiogenic effects (Seibenhener, M. L. & M. C. Wooten (2015) Use of the Open Field Maze to Measure Locomotor and Anxiety-like Behavior in Mice. Journal of Visualized Experiments: JoVE, 52434). Rodents show distinct aversions to large, brightly lit, open and unknown environments (Choleris, E., A. W. Thomas, M. Kavaliers & F. S. Prato (2001) A detailed ethological analysis of the mouse open field test: effects of diazepam, chlordiazepoxide and an extremely low frequency pulsed magnetic field. Neuroscience & Biobehavioral Reviews, 25, 235-260). These features are incorporated in the open field test and form the basis of its use in behavioural paradigm testing. There are various parameters that can be quantified from the open field, but the primary parameter of interest is thigmotaxis, the tendency of a subject to remain close to walls as determined by measuring time spent in inner zones versus outer zones of the maze (Simon, P., R. Dupuis & J. Costentin (1994) Thigmotaxis as an index of anxiety in mice. Influence of dopaminergic transmissions. Behavioural brain research, 61, 59-64). […] For the OFT, animals were placed in the open field arena and allowed to freely explore for 5 minutes. The session was recorded and analysed by EthoVision software which quantified the total distance covered. The number of entries into and total time spent in the centre of the arena were scored by two observers blind to experimental conditions (FIG. 9).

[1] = cohort 1, cocaine+20 mg/kg 5-MeO-DMT

| Compound | duration of rearing behaviour, main effect (cohort 1) | duration of time spent in the centre of the arena (cohort 1) | number of rearings, main effect (cohort 1) | duration of time spent in the centre of the field (cohort 2) | number of entries into the centre of the open field (cohort 2, cocaine p=0.0448, no post hoc differences) | number of entries into the centre of the open field arena (cohort 1, 20 mg/kg 5-MeO-DMT, p=0.0139, no post hoc differences) | duration of rearing behaviour [1] | number of rearings [1] | total distance travelled (cohort 1, cocaine+20 mg/kg 5-MeO-DMT relative to cocaine+vehicle) | total distance travelled (cohort 1, saline+20 mg/kg 5-MeO-DMT relative to saline+vehicle) | number of rearings (cohort 2, 10 mg/kg 5-MeO-DMT, p=0.0031, no post hoc differences) | duration of rearings (cohort 2, 10 mg/kg 5-MeO-DMT, p=0.0837) | total distance travelled (cohort 2, saline+10 mg/kg 5-MeO-DMT relative to saline+vehicle) |
| --- | --- | --- | --- | --- | --- | --- | --- | --- | --- | --- | --- | --- | --- |
| COC(=O)[C@H]1[C@@H](OC(=O)c2ccccc2)C[C@@H]2CC[C@H]1N2C.Cl [cocaine, cocaine hydrochloride, reference compound] | affected | not affected by any treatment group | significantly affected | not changed by any of treatments | significantly affected |  |  |  |  |  |  |  |  |
| COc1ccc2[nH]cc(CCN(C)C)c2c1 [5-MeO-DMT, 5-methoxy-N,N-dimethyltryptamine] | affected | not affected by any treatment group | significantly affected | not changed by any of treatments |  | significantly affected | significant decrease in the combination group relative to control | significantly decreased the number of rearings relative to the control and cocaine-treated animals | reduction in the total distance travelled | reduction in the total distance travelled | significant effect | not the duration of rearings | specific reduction in the total distance travelled |

— US20240299353A1, “COMPOSITIONS AND METHODS FOR TREATING […] 5-MEO-DMT” (Alvarius Pharmaceuticals Ltd., priority 2021, published 2024)
